Data: patent publication US12110286B2, “Benzimidazolone derived inhibitors of BCL6” (Cancer Research Technology Limited, priority 2017, dated 2024)

Legend:
endogenous BCL6 protein = endogenous BCL6 protein (Homo sapiens (Human), UniProt P41182); test: Immunofluorescence-based BCL6 degradation assay; assay type: cell-based; settings: 2 hours with compound
Description: Immunofluorescence-Based BCL6 Degradation Assay
DC50 values (compound concentration at which 50% of endogenous BCL6 protein is degraded) were determined in SUDHL-4 cells (American Type Culture Collection) in an immunofluorescence-based assay using an InCell2200 high content imaging system (GE Healthcare). […] After 20 hours cell culture at 37° C./CO2 incubator, compounds were dispensed in the cell culture plate using ECHO550 acoustic dispenser (Labcyte, Inc.), as 8 point-concentration response (ranging from 5 nM to 10 μM) in 0.67% final DMSO concentration. Cells were incubated with compound for 2 hours at 37° C./CO2 incubator followed by fixation in 4.5% formaldehyde (37% formaldehyde solution, Sigma catalogue F8775) at room temperature for 15 min. […] Blocking and cell permeabilisation were performed by incubating the fixed cells for 1 hour at room temperature in 1×TBS, 5% BSA, 1% Triton X100, followed by three washes on PW384 plate washer. Primary and secondary antibodies were prepared in 1×TBS, 1% BSA, 0.2% Triton X100. […] After incubation in each antibody, cells were washes four times in 1×TBS-0.05% tween on PW384 plate washer. Cells were finally incubated for 60 min with nuclear staining RedDot2 dye (Biotium) at 0.5× the stock concentration in 1×TBS. BCL6 expression in the absence or presence of compound was detected on InCell2200 with 20× objective and quantified on InCell Analyser 3.7.2 workstation (GE Healthcare). The % response at each concentration was calculated by normalising BCL6 expression in the presence of compound to the appropriate high (DMSO) and low (DMSO with 7 μM CCT369260) controls.

[1] = target: Trx-6×His-BCL6 (human BCL6 BTB domain covering amino-acid sequence 5-129) (Homo sapiens (Human), UniProt P41182); test: HTRF in vitro assay (BCL6 / BCOR-AF633 peptide); assay type: binding; settings: further generated data, 1 nM Trx-6×His-BCL6, 300 nM BCOR-AF633 peptide, 0.5 nM anti-6×His-Terbium cryptate; for IC50: read-out: HTRF pIC50 (converted)
Description: The % inhibition at each concentration was calculated by normalising FRET ratio to the appropriate high (DMSO with all reagents) and low (DMSO without BCL6) controls.

SU-DHL-4 cells = test: 14-day cell proliferation assay (CellTiter Glo); assay type: cell-based; settings: Homo sapiens, SU-DHL-4, 336 h; SU-DHL4 cells, 14 days
Description: 14-Day Cell Proliferation Assay
SU-DHL-4 cells were seeded in 96-well culture plates at a density of 2000 cells/well in RPMI-1640 medium (Sigma-Aldrich) supplemented with 10% FBS (Gibco). Compounds were initially dispensed into 96-well U-bottom plates using an Echo 550 acoustic dispenser (Labcyte Inc.), then diluted in RPMI-1640 medium and transferred onto the cells. Cells were treated with 8 compound concentrations in duplicate, ranging from 1 nM to 10 μM, in a final DMSO concentration of 0.1% and final volume of 100 μl. Cells were incubated with compound for 14 days, with medium changes at days 3, 7 and 10 carried out as follows: fresh 96-well cell culture plates were prepared containing 100 μl medium plus compound at the assay concentrations (white plates were used on day 10 to optimise luminescence measurement). Assay plates containing cells were vortexed to mix and cell density in one control well was counted using a Coulter Z2 cell counter (Beckman Coulter). The volume of medium containing 2000 cells in the control well was calculated and this volume of cells was transferred from every well of the assay plates to the corresponding well of the fresh plates containing compound. After 14 days, CellTiter Glo reagent (Promega) was added to the medium in each well of the assay plate at a ratio of 1:2, mixed on a plate shaker, then incubated at room temperature for 10 minutes. Luminescence was measured using an Envision plate reader (Perkin Elmer) and the relative luminescence at each compound concentration, compared to DMSO alone, was calculated. G150 were determined using a 4-parameter curve fit in Dotmatics (Bishops Stortford, UK).

| IC50 [1] | SMILES | Degradation assay in SU-DHL4 cells (pDC50) (endogenous BCL6 protein) | GI50 (SU-DHL-4 cells) | HTRF pIC50 [1] |
| --- | --- | --- | --- | --- |
| 813 nM | Cn1c(=O)n(CCC(C)(C)O)c2cc(Nc3cc(N4CCC(F)(F)CC4)ncc3Cl)ccc21 [Example 36a, 5-((5-chloro-2-(4,4-difluoropiperidin-1-yl)pyridin-4-yl)amino)-3-(3-hydroxy-3-methylbutyl)-1-methyl-1,3-dihydro-2H-benzo[d]imidazol-2-one] | 6.35 |  |  |
|  | CC1CN(c2ncc(Cl)c(Nc3ccc4c(c3)n(CCC(C)(C)O)c(=O)n4C)n2)CCC1(F)F (stereo not shown) [Example 35c, 5-((5-chloro-2-(4,4-difluoro-3-methylpiperidin-1-yl)pyrimidin-4-yl)amino)-3-(3-hydroxy-3-methylbutyl)-1-methyl-1,3-dihydro-2H-benzo[d]imidazol-2-one] | 6.75 | 440 nM | 6.53 |
|  | COCC1CN(c2ncc(Cl)c(Nc3ccc4c(c3)n(CCC(C)(C)O)c(=O)n4C)n2)CCC1(F)F (stereo not shown) [Example 35b, 5-((5-chloro-2-(4,4-difluoro-3-(methoxymethyl)piperidin-1-yl)pyrimidin-4-yl)amino)-3-(3-hydroxy-3-methylbutyl)-1-methyl-1,3-dihydro-2H-benzo[d]imidazol-2-one] | 6.35 | 1840 nM | 6.70 |
|  | CC1CCCN(c2ncc(Cl)c(Nc3ccc4c(c3)n(CCC(C)(C)O)c(=O)n4C)n2)C1.O=CO (stereo not shown) [Example 20g] | 6.29 | 750 nM | 6.07 |
| 1740 nM | C[C@@H]1CN(c2ncc(Cl)c(Nc3ccc4c(c3)n(CCC(C)(C)O)c(=O)n4CCC(C)(C)O)n2)C[C@H](C)C1(F)F [Example 35j, 5-((5-chloro-2-((3R,5S)-4,4-difluoro-3,5-dimethylpiperidin-1-yl)pyrimidin-4-yl)amino)-1,3-bis(3-hydroxy-3-methylbutyl)-1,3-dihydro-2H-benzo[d]imidazol-2-one] | 6.43 | 760 nM |  |
|  | Cn1c(=O)n(CCC(C)(C)O)c2cc(Nc3nc(N4CCCC(C(F)(F)F)C4)ncc3Cl)ccc21 (stereo not shown) [Example 20h] | 6.30 |  | 6.49 |
|  | C[C@@H]1CN(c2ncc(Cl)c(Nc3ccc4c(c3)n(CCC(C)(C)O)c(=O)n4C)n2)C[C@H](C)C1(F)F [Example 20a, 5-((5-chloro-2-((3R,5S)-4,4-difluoro-3,5-dimethylpiperidin-1-yl)pyrimidin-4-yl)amino)-3-(3-hydroxy-3-methylbutyl)-1-methyl-1,3-dihydro-2H-benzo[d]imidazol-2-one] |  | 70 nM |  |
|  | C[C@@H]1C[C@H](C)CN(c2ncc(Cl)c(Nc3ccc4c(c3)n(CCC(C)(C)O)c(=O)n4C)n2)C1 [Example 20e] |  | 350 nM |  |
|  | Cn1c(=O)n(CCC(C)(C)O)c2cc(Nc3nc(N4CCC(F)(F)CC4)ncc3Cl)ccc21 [Example 35d, 5-((5-chloro-2-(4,4-difluoropiperidin-1-yl)pyrimidin-4-yl)amino)-3-(3-hydroxy-3-methylbutyl)-1-methyl-1,3-dihydro-2H-benzo[d]imidazol-2-one] | 6.59 | 1130 nM | 6.48 |
|  | Cn1c(=O)n(CCC(C)(C)O)c2cc(Nc3nc(N4CCC(F)(F)C(CO)C4)ncc3Cl)ccc21 (stereo not shown) [Example 35a, 5-((5-chloro-2-(4,4-difluoro-3-(hydroxymethyl)piperidin-1-yl)pyrimidin-4-yl)amino)-3-(3-hydroxy-3-methylbutyl)-1-methyl-1,3-dihydro-2H-benzo[d]imidazol-2-one] |  | 1140 nM |  |
